ChEMBL document CHEMBL1130377 (J Med Chem, 1997)

Target: Melatonin receptor (Gallus gallus, UniProt P49288+P51050+P49285)
Test: Binding affinity against chicken brain melatonin receptors using 2-[125I]iodomelatonin as radioligand

SMILES | Log Ki
COc1ccc2cccc(CCNC(=O)C3CC3)c2c1 | -7.71
CCOc1ccc2ccccc2c1CCNC(=O)CC | -8.97
CCCNC(=O)NCCc1c[nH]c2ccc(OC)cc12 | -8.17
CC(=O)NCCc1cccc2ccc(O)cc12 | -7.52
CCC(=O)NCCc1cc(Br)ccc1OC | -8.94
COc1ccc(C)cc1CCNC(=O)C(F)(F)F | -6.64
COc1ccc2cccc(CCNC(=O)CBr)c2c1 | -9.92
CCCC(=O)NCCc1c[nH]c2cc(F)c(OC)cc12 | -9.85
COc1ccc2cccc(CCNC=O)c2c1 | -8.03
CC(=O)NCCc1c[nH]c2ccccc12 | -6.31
COc1cccc(CCNC(=O)C(F)(F)F)c1 | -5.72
COc1ccc2ccc(OC)c(CCNC(=O)C(F)(F)F)c2c1 | -9.41
COc1ccc(OC)c(CCNC(C)=O)c1 | -7.15
CCC(=O)NCCc1cc(OC)cc2ccc(OC)cc12 | -7.92
COc1ccc2ccccc2c1CCNC(=O)C(F)(F)F | -9.26
CCC(=O)NCCc1cccc2ccc(OC)cc12 | -9.74
CCCC(=O)NCCc1cccc2ccc(OC)cc12 | -10.53

SMILES | Log Ki
CCOc1ccc2ccccc2c1CCNC(C)=O | -8.45
COc1ccc(-c2ccccc2)cc1CCNC(C)=O | -6.54
COc1ccc(OC)c(CCNC(=O)C(F)(F)F)c1 | -6.94
COc1ccc2cccc3c2c1CC(NC(C)=O)C3 (stereo not drawn) | -7.46
COc1ccc2[nH]cc(CCNC(=O)C3CC3)c2c1 | -8.6
CCOc1ccc2ccccc2c1CCNC(=O)C(F)(F)F | -8.23
COc1ccc2ccc(OC)c(CCNC(C)=O)c2c1 | -9.62
COc1ccc2ccccc2c1CONC(C)=O | -7.25
CCC(=O)NCCc1c(OC)ccc2cc(C)ccc12 | -7.19
COc1ccc2cccc(CONC(C)=O)c2c1 | -8.77
CCC(=O)NCCc1c(OC)ccc2ccc(OC)cc12 | -10.14
CCCCC(=O)NCCc1cccc2ccccc12 | -6.62
CCCCC(=O)NCCc1cccc2ccc(OC)cc12 | -7.35
COc1ccc(C)cc1CCNC(C)=O | -6.71
COc1cc2c(CCNC(=O)C3CC3)c[nH]c2cc1F | -8.6
COc1cc2ccccc2c2c1CC(NC(C)=O)CC2 (stereo not drawn) | -6.67
